Measured values from patent publication US20100003228A1, “T-CELL VACCINE” (priority 2006, published 2010).

What was measured:
[1] = test system: myelin-reactive T cells; experiment: Growth of myelin reactive T cell lines with low stimulation indices; type: cell-based, human
From the text: Using the algorithms described above, statistically significant SIs as low as 1.3 have been observed and therefore should be able grow in response to antigen. To verify this ability, 5 cell lines across two patients are shown with an SI<2.0. The results are shown in Table 12 and FIG. 24, which indicate growth of these cell lines with only peptide antigen stimulation and common T cell growth factors.
PBMC for subject 1042 were run in the EAA, and […] were positive, including PLPm18 with an SI of 1.8, PLPm26 with an SI of 2.5 and PLPm28 with an SI of 2.5. […] PBMC for subject 1014 were run in the EAA, and 4 mixes were positive, including MBPm14 with an SI of 1.7, PLPm17 with an SI of 1.7, PLPm28 with an SI of 2.2 and MOGm6 with an SI of 1.9. […]
PBMCs were isolated via density gradient centrifugation from peripheral blood obtained through venipuncture into ACD-1 anticoagulant. PBMCs were plated at 2.5E+06 cells/well in 24 well plates. Antigen in the form of 16mer peptides identified in the EAA were added at a final concentration of 20 ug/ml. Interluekin-2 (IL-2) was added at a final concentration of 100 U/ml starting at 48 hours and IL-2 was added at the same concentration with each feeding or splitting of wells. Peptide restimulation in the presence of antigen presenting cells (APCs-autologous PBMCs irradiated at 3500 rad) was done at days 7, 14 and 21. Interleukin-15 (IL-15) was added at a final concentration of 5 ng/ml-20 ng/ml (lot specific) starting at day 14 and continued through the remainder of the culture period. Cells lines were all harvested by day 35 and had achieved expansions of 3.0-8.2 fold.

[2] = test system: myelin reactive T cells in PBMCs; experiment: EAA with positivity by Variance Evaluation Method or CPM Variance Method (clinical trials); type: cell-based, human; settings: clinical trial population, RR-MS or CIS subjects
From the text: The predetermined value may also be calculated using a Variance Evaluation Method as follows: • 1. EAAs may be run on a given patient population (minimum of 120 assays from 120 unique subjects) • 2. A “negative population” may be created by averaging all SI values<2.5 • 3. The Standard Deviation (SD) may be calculated for each peptide • 4. The following for each peptide may be then be calculated: • a. Average+1SD • b. Average+2SD • c. Average+3SD • 5. The following SIs may be considered above the predetermined value: • a. SI greater than or equal to the average+3SD • b. Any SI greater than or equal to 2.5
The predetermined value may also be evaluated using a Counts per Minute (CPM) Variance Method. This algorithm may set a comprehensive cutoff for all peptides within a given assay. It may be calculated as follows: • 1. EAAs may be run and the CPM for all control (media only, no antigen) wells averaged. • 2. The SD for CPM of the control wells may then be calculated. • 3. The following may then be calculated for the control wells: • a. Average+1SD • b. Average+2SD • c. Average+3SD • 4. Any peptide with an average CPM greater than or equal to the average+3SD of the control wells may be considered above the predetermined value.
Any peptide, either analyzed in an individual well or as averaged over wells run in triplicate, with an SI≧2.5, an SI≧average+3SD by the Variance Evaluation Method, or an SI≧average+3SD by the CPM variance method may be considered above the predetermined value, which may indicate a T cell(s) positive for reactivity to a peptide.
The peptides of Example 3 have been tested in 429 EAAs in clinical trials as follows. […] Pre-Vaccine EAAs have 158 positive out of 387 assays (40.8%), with Relapse Remitting MS patients (RRMS) showing 150 positive of 368 assays (40.8%), and Clinically Isolated Syndrome (CIS) patients showing 8 positive of 19 assays (42.1%).
Over the course of 6 months a study was conducted with 120 subjects meeting the criteria for the clinical trial.
The above mentioned population of subjects was evaluated by EAA using the Variance Evaluation Method and CPM Variance Method as described above, and deemed eligible for vaccine production. Of the 120 attempts to manufacture vaccine, there were 2 shipping failures (blood was not received within our stated criteria), 1 culture was lost to contamination and 5 samples arrived with low cell volume/yield. Of the remaining 112 subjects, vaccine was successfully generated in 89 subjects, with 22 still in production (98.9% of eligible samples, 92.5% of all samples completed). From this, a positive EAA was deemed predictive of the ability to manufacture a vaccine to therapeutic dose by methods disclosed herein.

Row | Substance | Fold Expansion ([1]; subject 1014, Day 0) | Viable Cell Count, Count/well ([1]; subject 1014, Day 0) | Viable Cell Count, Total Cells ([1]; subject 1014, Day 0) | Fold Expansion ([1]; subject 1014, Day 17) | Viable Cell Count, Count/well ([1]; subject 1014, Day 17) | Viable Cell Count, Total Cells ([1]; subject 1014, Day 17) | Fold Expansion ([1]; subject 1014, Day 19) | Viable Cell Count, Count/well ([1]; subject 1014, Day 19) | Viable Cell Count, Total Cells ([1]; subject 1014, Day 19) | Fold Expansion ([1]; subject 1014, Day 28) | Viable Cell Count, Count/well ([1]; subject 1014, Day 28) | Viable Cell Count, Total Cells ([1]; subject 1014, Day 28) | Fold Expansion ([1]; subject 1014, Day 33) | Viable Cell Count, Count/well ([1]; subject 1014, Day 33) | Viable Cell Count, Total Cells ([1]; subject 1014, Day 33) | Fold Expansion ([1]; subject 1014, Day 35) | Viable Cell Count, Count/well ([1]; subject 1014, Day 35) | Viable Cell Count, Total Cells ([1]; subject 1014, Day 35) | # of Subjects (frequency of identification) [2] | % of Subjects (frequency of identification) [2] | other results
1 | MOGm6: mix of MOG 11 and MOG 12 (chain 1 RPPFSRVVHLYRNGKD; chain 2 SRVVHLYRNGKDQDGD) | 1.3 | 2.50E+06 | 3.00E+07 | 0.7 | 2.18E+06 | 1.96E+07 | 1.3 | 4.27E+06 | 3.84E+07 | 4.1 | 4.35E+06 | 1.22E+08 | 4.4 | 4.71E+06 | 1.32E+08 | 3.7 | 3.93E+06 | 1.10E+08 | 4 | 3.4% | –
2 | PLPm17: mix of PLP 33 and PLP 34 (chain 1 QHQAHSLERVCHCLGK; chain 2 HSLERVCHCLGKWLGH) | 1.0 | 2.50E+06 | 2.25E+07 | 0.7 | 2.34E+06 | 2.11E+07 | 1.2 | 3.85E+06 | 3.47E+07 | 3.5 | 4.77E+06 | 1.05E+08 | 2.9 | 3.89E+06 | 8.56E+07 | 4.7 | 4.73E+06 | 1.42E+08 | 14 | 11.8% | –
3 | PLPm18: mix of PLP 35 and PLP 36 (chain 1 RVCHCLGKWLGHPDKF; chain 2 CLGKWLGHPDKFVGIT) | – | – | – | – | – | – | – | – | – | – | – | – | – | – | – | – | – | – | 10 | 8.4% | Fold Expansion ([1]; subject 1042, Day 0): 1.0; Viable Cell Count, Count/well ([1]; subject 1042, Day 0): 2.50E+06; Viable Cell Count, Total Cells ([1]; subject 1042, Day 0): 3.00E+07; Fold Expansion ([1]; subject 1042, Day 14): 0.4; Viable Cell Count, Count/well ([1]; subject 1042, Day 14): 9.60E+05; Viable Cell Count, Total Cells ([1]; subject 1042, Day 14): 1.15E+07; Fold Expansion ([1]; subject 1042, Day 19): 0.8; Viable Cell Count, Count/well ([1]; subject 1042, Day 19): 1.97E+06; Viable Cell Count, Total Cells ([1]; subject 1042, Day 19): 2.36E+07; Fold Expansion ([1]; subject 1042, Day 26): 1.2; Viable Cell Count, Count/well ([1]; subject 1042, Day 26): 1.50E+06; Viable Cell Count, Total Cells ([1]; subject 1042, Day 26): 3.60E+07; Fold Expansion ([1]; subject 1042, Day 33): 3.0; Viable Cell Count, Count/well ([1]; subject 1042, Day 33): 3.76E+06; Viable Cell Count, Total Cells ([1]; subject 1042, Day 33): 9.02E+07; Fold Expansion ([1]; subject 1042, Day 35): 3.0; Viable Cell Count, Count/well ([1]; subject 1042, Day 35): 3.74E+06; Viable Cell Count, Total Cells ([1]; subject 1042, Day 35): 8.98E+07
4 | PLPm22: mix of PLP 43 and PLP 44 (chain 1 CSAVPVYIYFNTWTTC; chain 2 PVYIYFNTWTTCQSIA) | – | – | – | – | – | – | – | – | – | – | – | – | – | – | – | – | – | – | 2 | 1.7% | –
5 | PLPm24: mix of PLP 47 and PLP 48 (chain 1 QSIAFPSKTSASIGSL; chain 2 FPSKTSASIGSLCADA) | – | – | – | – | – | – | – | – | – | – | – | – | – | – | – | – | – | – | 7 | 5.9% | –
6 | PLPm25: mix of PLP 49 and PLP 50 (chain 1 TSASIGSLCADARMYG; chain 2 IGSLCADARMYGVLPW) | – | – | – | – | – | – | – | – | – | – | – | – | – | – | – | – | – | – | 3 | 2.5% | –
7 | PLPm26: mix of PLP 51 and PLP 52 (chain 1 CADARMYGVLPWNAFP; chain 2 RMYGVLPWNAFPGKVC) | – | – | – | – | – | – | – | – | – | – | – | – | – | – | – | – | – | – | 28 | 23.5% | Fold Expansion ([1]; subject 1042, Day 0): 1.0; Viable Cell Count, Count/well ([1]; subject 1042, Day 0): 2.50E+06; Viable Cell Count, Total Cells ([1]; subject 1042, Day 0): 3.00E+07; Fold Expansion ([1]; subject 1042, Day 14): 0.6; Viable Cell Count, Count/well ([1]; subject 1042, Day 14): 1.50E+06; Viable Cell Count, Total Cells ([1]; subject 1042, Day 14): 1.80E+07; Fold Expansion ([1]; subject 1042, Day 19): 1.0; Viable Cell Count, Count/well ([1]; subject 1042, Day 19): 2.40E+06; Viable Cell Count, Total Cells ([1]; subject 1042, Day 19): 2.88E+07; Fold Expansion ([1]; subject 1042, Day 26): 3.0; Viable Cell Count, Count/well ([1]; subject 1042, Day 26): 3.73E+06; Viable Cell Count, Total Cells ([1]; subject 1042, Day 26): 8.95E+07; Fold Expansion ([1]; subject 1042, Day 33): 4.2; Viable Cell Count, Count/well ([1]; subject 1042, Day 33): 2.61E+06; Viable Cell Count, Total Cells ([1]; subject 1042, Day 33): 1.25E+08; Fold Expansion ([1]; subject 1042, Day 35): 5.7; Viable Cell Count, Count/well ([1]; subject 1042, Day 35): 3.54E+06; Viable Cell Count, Total Cells ([1]; subject 1042, Day 35): 1.70E+08
8 | PLPm28: mix of PLP 55 and PLP 56 (chain 1 GKVCGSNLLSICKTAE; chain 2 GSNLLSICKTAEFQMT) | 1.0 | 2.50E+06 | 2.25E+07 | 0.9 | 3.09E+06 | 2.78E+07 | 1.4 | 2.41E+06 | 4.34E+07 | 2.8 | 2.81E+06 | 8.43E+07 | 5.2 | 5.17E+06 | 1.55E+08 | 5.3 | 5.33E+06 | 1.60E+08 | 6 | 5.0% | Fold Expansion ([1]; subject 1042, Day 0): 1.0; Viable Cell Count, Count/well ([1]; subject 1042, Day 0): 2.50E+06; Viable Cell Count, Total Cells ([1]; subject 1042, Day 0): 3.00E+07; Fold Expansion ([1]; subject 1042, Day 14): 0.6; Viable Cell Count, Count/well ([1]; subject 1042, Day 14): 1.56E+06; Viable Cell Count, Total Cells ([1]; subject 1042, Day 14): 1.87E+07; Fold Expansion ([1]; subject 1042, Day 19): 1.5; Viable Cell Count, Count/well ([1]; subject 1042, Day 19): 3.82E+06; Viable Cell Count, Total Cells ([1]; subject 1042, Day 19): 4.58E+07; Fold Expansion ([1]; subject 1042, Day 26): 3.5; Viable Cell Count, Count/well ([1]; subject 1042, Day 26): 4.34E+06; Viable Cell Count, Total Cells ([1]; subject 1042, Day 26): 1.04E+08; Fold Expansion ([1]; subject 1042, Day 33): 7.4; Viable Cell Count, Count/well ([1]; subject 1042, Day 33): 4.61E+06; Viable Cell Count, Total Cells ([1]; subject 1042, Day 33): 2.21E+08; Fold Expansion ([1]; subject 1042, Day 35): 8.2; Viable Cell Count, Count/well ([1]; subject 1042, Day 35): 5.15E+06; Viable Cell Count, Total Cells ([1]; subject 1042, Day 35): 2.47E+08
9 | PLPm32: mix of PLP 63 and PLP 64 (chain 1 ATLVSLLTFMIAATYN; chain 2 SLLTFMIAATYNFAVL) | – | – | – | – | – | – | – | – | – | – | – | – | – | – | – | – | – | – | 12 | 10.1% | –
